Measurements published in PubChem BioAssay (NCI).
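The compound was tested at five concentrations on cells cultured in 96-well plates, with a 48-hour exposure period. TGI marks complete inhibition of growth.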

Key:
Experiment in all cases: DTP human tumour cell line panel, 48 h
786-0 renal = test system: 786-0 renal
A498 renal = test system: A498 renal
A549 NSCLC = test system: A549 NSCLC
ACHN renal = test system: ACHN renal
BT-549 breast = test system: BT-549 breast
CAKI-1 renal = test system: CAKI-1 renal
CCRF-CEM leukemia = test system: CCRF-CEM leukemia
COLO 205 colon = test system: COLO 205 colon
DU-145 prostate = test system: DU-145 prostate
EKVX NSCLC = test system: EKVX NSCLC
HCC-2998 colon = test system: HCC-2998 colon
HCT-116 colon = test system: HCT-116 colon
HCT-15 colon = test system: HCT-15 colon
HL-60(TB) leukemia = test system: HL-60(TB) leukemia
HOP-62 NSCLC = test system: HOP-62 NSCLC
HOP-92 NSCLC = test system: HOP-92 NSCLC
HS 578T breast = test system: HS 578T breast
HT29 colon = test system: HT29 colon
IGROV1 ovarian = test system: IGROV1 ovarian
K-562 leukemia = test system: K-562 leukemia
KM12 colon = test system: KM12 colon
LOX IMVI melanoma = test system: LOX IMVI melanoma
M14 melanoma = test system: M14 melanoma
MALME-3M melanoma = test system: MALME-3M melanoma
MCF7 breast = test system: MCF7 breast
MDA-MB-231 breast = test system: MDA-MB-231 breast
MDA-MB-435 = test system: MDA-MB-435
MDA-N = test system: MDA-N
MOLT-4 leukemia = test system: MOLT-4 leukemia
NCI-H226 lung = test system: NCI-H226 lung
NCI-H23 lung = test system: NCI-H23 lung
NCI-H460 lung = test system: NCI-H460 lung
NCI-H522 lung = test system: NCI-H522 lung
NCI/ADR-RES ovarian = test system: NCI/ADR-RES ovarian
OVCAR-3 ovarian = test system: OVCAR-3 ovarian
OVCAR-4 ovarian = test system: OVCAR-4 ovarian
OVCAR-5 ovarian = test system: OVCAR-5 ovarian
OVCAR-8 ovarian = test system: OVCAR-8 ovarian
PC-3 prostate = test system: PC-3 prostate
RPMI-8226 leukemia = test system: RPMI-8226 leukemia
RXF 393 renal = test system: RXF 393 renal
SF-268 CNS = test system: SF-268 CNS
SF-295 CNS = test system: SF-295 CNS
SF-539 CNS = test system: SF-539 CNS
SK-MEL-2 melanoma = test system: SK-MEL-2 melanoma
SK-MEL-28 melanoma = test system: SK-MEL-28 melanoma
SK-MEL-5 melanoma = test system: SK-MEL-5 melanoma
SK-OV-3 ovarian = test system: SK-OV-3 ovarian
SN12C renal = test system: SN12C renal
SNB-19 CNS = test system: SNB-19 CNS
SNB-75 CNS = test system: SNB-75 CNS
SR leukemia = test system: SR leukemia
SW-620 colon = test system: SW-620 colon
T-47D breast = test system: T-47D breast
TK-10 renal = test system: TK-10 renal
U251 CNS = test system: U251 CNS
UACC-257 melanoma = test system: UACC-257 melanoma
UACC-62 melanoma = test system: UACC-62 melanoma
UO-31 renal = test system: UO-31 renal

SMILES: O=C1C[C@H](Sc2ccccc2)C2(OCCO2)[C@H]2ON3CCC[C@@H]3[C@@H]12
- TGI (786-0 renal): 4.98 µM
- TGI (A498 renal): 27.9 µM
- TGI (A549 NSCLC): 13 µM
- TGI (ACHN renal): 5.55 µM
- TGI (BT-549 breast): 16.2 µM
- TGI (CAKI-1 renal): 7.13 µM
- TGI (CCRF-CEM leukemia): 0.829 µM
- TGI (COLO 205 colon): 5.31 µM
- TGI (DU-145 prostate): 6.95 µM
- TGI (EKVX NSCLC): 9.64 µM
- TGI (HCC-2998 colon): 6.69 µM
- TGI (HCT-116 colon): 2.88 µM
- TGI (HCT-15 colon): 4.42 µM
- TGI (HL-60(TB) leukemia): 3.67 µM
- TGI (HOP-62 NSCLC): 5.29 µM
- TGI (HOP-92 NSCLC): 3.92 µM
- TGI (HS 578T breast): > 39 µM
- TGI (HT29 colon): 2.81 µM
- TGI (IGROV1 ovarian): 2.46 µM
- TGI (K-562 leukemia): 8.11 µM
- TGI (KM12 colon): 2.87 µM
- TGI (LOX IMVI melanoma): 3.05 µM
- TGI (M14 melanoma): 7.19 µM
- TGI (MALME-3M melanoma): 4.01 µM
- TGI (MCF7 breast): 3.16 µM
- TGI (MDA-MB-231 breast): 10.9 µM
- TGI (MDA-MB-435): 3.9 µM
- TGI (MDA-N): 13.3 µM
- TGI (MOLT-4 leukemia): 1.85 µM
- TGI (NCI-H226 lung): 26.7 µM
- TGI (NCI-H23 lung): 7.12 µM
- TGI (NCI-H460 lung): 9.55 µM
- TGI (NCI-H522 lung): 2.08 µM
- TGI (NCI/ADR-RES ovarian): 30.8 µM
- TGI (OVCAR-3 ovarian): 2.75 µM
- TGI (OVCAR-4 ovarian): 9.14 µM
- TGI (OVCAR-5 ovarian): 7.8 µM
- TGI (OVCAR-8 ovarian): 11.5 µM
- TGI (PC-3 prostate): 13 µM
- TGI (RPMI-8226 leukemia): 1.33 µM
- TGI (RXF 393 renal): 11 µM
- TGI (SF-268 CNS): 7.25 µM
- TGI (SF-295 CNS): 14.4 µM
- TGI (SF-539 CNS): 7.9 µM
- TGI (SK-MEL-2 melanoma): 13.8 µM
- TGI (SK-MEL-28 melanoma): 7.55 µM
- TGI (SK-MEL-5 melanoma): 21.6 µM
- TGI (SK-OV-3 ovarian): 11.4 µM
- TGI (SN12C renal): 6.29 µM
- TGI (SNB-19 CNS): 19.6 µM
- TGI (SNB-75 CNS): 11.5 µM
- TGI (SR leukemia): 1.95 µM
- TGI (SW-620 colon): 5.82 µM
- TGI (T-47D breast): 7.17 µM
- TGI (TK-10 renal): 13.3 µM
- TGI (U251 CNS): 6.66 µM
- TGI (UACC-257 melanoma): 8.71 µM
- TGI (UACC-62 melanoma): 3.77 µM
- TGI (UO-31 renal): 3.61 µM
